Test results taken from patent publication US20230374038A1, “MODULATORS OF CYSTIC FIBROSIS TRANSMEMBRANE CONDUCTANCE REGULATOR” (VERTEX PHARMACEUTICALS INCORPORATED, priority 2020, published 2023).
Where two headings read alike, the source gives them in different places.

Key:
CFTR = CFTR (Homo sapiens, UniProt P13569); experiment: Membrane Potential Dye, Enteroid Assay B; format: cell-based; conditions: for EC50: read-out: Ent. B EC50
Method in brief: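 Membrane-potential fluorescence read over 15 min after chloride-free stimulation (forskolin 10 μM, IBMX 100 μM, Compound III 300 nM), with CaCCinh-A01 and Chicago Sky Blue present. Enteroids had 18-24 h compound exposure at 37 °C; activity given as % of the triple-combination corrector/potentiator reference response.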

[1] = amide bond

Chain of CFTR (P13569 with tags, fused parts or gaps DEL508-508): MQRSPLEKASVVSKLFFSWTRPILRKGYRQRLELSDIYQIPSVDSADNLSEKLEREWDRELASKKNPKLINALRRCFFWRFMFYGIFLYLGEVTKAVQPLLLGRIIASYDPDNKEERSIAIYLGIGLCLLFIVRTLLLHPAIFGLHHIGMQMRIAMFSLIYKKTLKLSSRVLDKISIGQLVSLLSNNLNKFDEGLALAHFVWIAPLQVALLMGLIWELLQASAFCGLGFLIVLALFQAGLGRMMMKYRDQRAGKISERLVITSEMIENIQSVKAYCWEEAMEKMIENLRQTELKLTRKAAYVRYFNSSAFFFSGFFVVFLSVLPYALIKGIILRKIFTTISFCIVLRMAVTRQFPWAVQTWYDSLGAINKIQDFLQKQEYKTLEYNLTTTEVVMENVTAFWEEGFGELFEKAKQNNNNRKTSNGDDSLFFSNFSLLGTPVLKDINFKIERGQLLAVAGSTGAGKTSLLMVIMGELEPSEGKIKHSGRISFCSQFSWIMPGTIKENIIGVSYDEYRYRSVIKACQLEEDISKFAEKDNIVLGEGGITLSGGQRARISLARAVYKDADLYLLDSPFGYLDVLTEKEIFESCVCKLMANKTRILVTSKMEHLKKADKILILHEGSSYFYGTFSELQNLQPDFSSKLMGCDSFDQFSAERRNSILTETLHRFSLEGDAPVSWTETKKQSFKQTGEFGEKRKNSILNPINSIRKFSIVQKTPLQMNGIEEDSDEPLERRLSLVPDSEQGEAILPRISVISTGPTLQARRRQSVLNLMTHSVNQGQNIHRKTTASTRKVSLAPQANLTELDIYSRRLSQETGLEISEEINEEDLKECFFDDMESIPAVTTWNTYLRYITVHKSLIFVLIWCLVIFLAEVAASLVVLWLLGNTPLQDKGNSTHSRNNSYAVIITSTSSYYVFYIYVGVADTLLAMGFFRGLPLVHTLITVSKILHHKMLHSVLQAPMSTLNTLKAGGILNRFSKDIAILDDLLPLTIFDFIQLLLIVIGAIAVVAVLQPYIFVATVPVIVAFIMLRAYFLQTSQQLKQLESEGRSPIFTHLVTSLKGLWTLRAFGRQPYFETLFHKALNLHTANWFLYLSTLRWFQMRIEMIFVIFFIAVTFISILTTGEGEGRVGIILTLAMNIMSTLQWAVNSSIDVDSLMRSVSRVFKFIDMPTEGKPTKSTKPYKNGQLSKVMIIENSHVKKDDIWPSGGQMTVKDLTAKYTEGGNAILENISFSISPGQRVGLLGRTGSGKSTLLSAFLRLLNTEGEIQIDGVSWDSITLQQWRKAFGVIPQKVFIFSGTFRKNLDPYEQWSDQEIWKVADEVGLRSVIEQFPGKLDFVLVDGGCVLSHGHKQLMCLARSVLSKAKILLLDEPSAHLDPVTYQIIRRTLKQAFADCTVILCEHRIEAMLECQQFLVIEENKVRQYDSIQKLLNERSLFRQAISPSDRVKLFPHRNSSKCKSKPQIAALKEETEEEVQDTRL

| Ent. B Max Activity (CFTR) | EC50 (CFTR) [nM] | Molecule | also measured |
| --- | --- | --- | --- |
| +++ (+++ is >60%) | < 1000 | Cc1cccc(C)c1-c1nc2nc(c1C)OC[C@@H](CC(C)(C)C(F)(F)F)N(C1CC3(CCN(C(=O)OC(C)(C)C)CC3)C1)C(=O)c1cccc(c1)S(=O)(=O)N2 [Compound 156, tert-Butyl 2-[(11R)-6-(2,6-dimethylphenyl)-7-methyl-2,2,13-trioxo-11-(3,3,3-trifluoro-2,2-dimethylpropyl)-9-oxa-2λ^6-thia-3,5,12,19-tetraazatricyclo[12.3.1.14,8]nonadeca-1(17),4(19),5,7,14(18),15-hexaen-12-yl]-7-azaspiro[3.5]nonane-7-carboxylate] | ring closure, yield after HPLC ([1]; from Cc1cccc(C)c1-c1nc(NS(=O)(=O)c2cccc(C(=O)O)c2)nc(OC[C@@H](CC(C)(C)C(F)(F)F)NC2CC3(CCN(C(=O)OC(C)(C)C)CC3)C2)c1C, 13-membered ring, HATU/DIEA, DMF, 23.2 mM, 29.0 h): 22% |
| +++ (+++ is >60%) | < 1000 | CCc1c2nc(nc1-c1c(C)cccc1C)NS(=O)(=O)c1cccc(c1)C(=O)N(C1CC3(CC3)C1)[C@H](CC(C)C)CO2 [Compound 160, (11R)-6-(2,6-Dimethylphenyl)-7-ethyl-11-isobutyl-2,2-dioxo-12-spiro[2.3]hexan-5-yl-9-oxa-2λ^6-thia-3,5,12,19-tetrazatricyclo[12.3.1.14,8]nonadeca-1(17),4(19),5,7,14(18),15-hexaen-13-one] | ring closure, yield after HPLC ([1]; from CCc1c(OC[C@@H](CC(C)C)NC2CC3(CC3)C2)nc(NS(=O)(=O)c2cccc(C(=O)O)c2)nc1-c1c(C)cccc1C, 13-membered ring, HATU/TEA, DMF, 31.1 mM, 3.0 h): 60% |
| +++ (+++ is >60%) | < 1000 | Cc1cccc(C)c1-c1nc2nc(c1C(F)(F)F)OC[C@@H](CC(C)C)N(C1CC3(CC3)C1)C(=O)c1cccc(c1)S(=O)(=O)N2 [Compound 162, (11R)-6-(2,6-dimethylphenyl)-11-isobutyl-2,2-dioxo-12-spiro[2.3]hexan-5-yl-7-(trifluoromethyl)-9-oxa-2λ^6-thia-3,5,12,19-tetrazatricyclo[12.3.1.14,8]nonadeca-1(18),4(19),5,7,14,16-hexaen-13-one] | ring closure, yield after HPLC ([1]; from Cc1cccc(C)c1-c1nc(NS(=O)(=O)c2cccc(C(=O)O)c2)nc(OC[C@@H](CC(C)C)NC2CC3(CC3)C2)c1C(F)(F)F, 13-membered ring, HATU/TEA, DMF, 11.7 mM, 16.0 h): 69% |
| +++ (+++ is >60%) | < 1000 | Cc1cccc(C)c1-c1nc2nc(c1C)OC[C@@H](CC1(C(F)(F)F)CC1)N(C1CC3(CC3)C1)C(=O)c1cccc(c1)S(=O)(=O)N2 [Compound 50, (11R)-6-(2,6-Dimethylphenyl)-7-methyl-2,2-dioxo-12-spiro[2.3]hexan-5-yl-11-[[1-(trifluoromethyl)cyclopropyl]methyl]-9-oxa-2λ^6-thia-3,5,12,19-tetrazatricyclo[12.3.1.14,8]nonadeca-1(18),4(19),5,7,14,16-hexaen-13-one] | ring closure, yield after HPLC ([1]; from Cc1cccc(C)c1-c1nc(NS(=O)(=O)c2cccc(C(=O)O)c2)nc(OC[C@@H](CC2(C(F)(F)F)CC2)NC2CC3(CC3)C2)c1C, 13-membered ring, HATU/DIEA, DMF, 14.4 mM, 25.0 °C, 23.0 h): 44% |
| ++ (++ is 30-60%) | < 1000 | Cc1cccc(C)c1-c1nc2nc(c1C)OC[C@@H](C)N(C1CC3(CC(NC(=O)OC(C)(C)C)C3)C1)C(=O)c1cccc(c1)S(=O)(=O)N2 (stereo partly drawn) [Compound 116, tert-Butyl N-{6-[(11R)-6-(2,6-dimethylphenyl)-7,11-dimethyl-2,2,13-trioxo-9-oxa-2λ^6-thia-3,5,12,19-tetraazatricyclo[12.3.1.14,8]nonadeca-1(18),4,6,8(19),14,16-hexaen-12-yl]spiro[3.3]heptan-2-yl}carbamate] | ring closure, yield after HPLC ([1]; from Cc1cccc(C)c1-c1nc(NS(=O)(=O)c2cccc(C(=O)O)c2)nc(OC[C@@H](C)NC2CC3(CC(NC(=O)OC(C)(C)C)C3)C2)c1C, 13-membered ring, HATU/TEA, DMF, 26.7 mM, 1.0 h): 57% |
| +++ (+++ is >60%) | < 1000 | Cc1cccc(C)c1-c1nc2nc(c1C)OC[C@@H](CC(C)C)N(C1CC3(CC3)C1)C(=O)c1cccc(n1)S(=O)(=O)N2 [Compound 118, (11R)-6-(2,6-Dimethylphenyl)-7-methyl-11-(2-methylpropyl)-12-{spiro[2.3]hexan-5-yl}-9-oxa-2λ^6-thia-3,5,12,18,19-pentaazatricyclo[12.3.1.14,8]nonadeca-1(17),4(19),5,7,14(18),15-hexaene-2,2,13-trione] | ring closure, yield after HPLC ([1]; from Cc1cccc(C)c1-c1nc(NS(=O)(=O)c2cccc(C(=O)O)n2)nc(OC[C@@H](CC(C)C)NC2CC3(CC3)C2)c1C, 13-membered ring, HATU/DIEA, DMF, 12.2 mM, 17.0 h): 42% |
| ++ (++ is 30-60%) | 1000 to 3000 | Cc1cccc(C)c1-c1nc2nc(c1C)OC[C@@H](C)NC(=O)c1cccc(c1)S(=O)(=O)N2 [Compound 117, (11R)-6-(2,6-Dimethylphenyl)-7,11-dimethyl-9-oxa-2λ^6-thia-3,5,12,19-tetraazatricyclo[12.3.1.14,8]nonadeca-1(18),4,6,8(19),14,16-hexaene-2,2,13-trione] | ring closure, yield after HPLC ([1]; from Cc1cccc(C)c1-c1nc(NS(=O)(=O)c2cccc(C(=O)O)c2)nc(OC[C@@H](C)N)c1C, 13-membered ring, HATU/DIEA, DMF, 49.3 mM, 1.0 h): 18% |

Continued, molecule first:

| Molecule | Ent. B Max Activity (CFTR) | EC50 (CFTR) [nM] | also measured |
| --- | --- | --- | --- |
| Cc1cccc(C)c1-c1nc2nc(c1C)O[C@H](c1ccc(C(C)(C)C)cc1)[C@@H](C)NC(=O)c1cccc(c1)S(=O)(=O)N2 [Compound 172, (10R,11R)-10-(4-tert-Butylphenyl)-6-(2,6-dimethylphenyl)-7,11-dimethyl-2,2-dioxo-9-oxa-2λ^6-thia-3,5,12,19-tetrazatricyclo[12.3.1.14,8]nonadeca-1(18),4(19),5,7,14,16-hexaen-13-one] | +++ (+++ is >60%) | < 1000 | ring closure, yield after HPLC ([1]; 13-membered ring, NaOtBu then HATU, THF/DMF, 77.0 mM, 2 steps): 8% |
| CCc1c2nc(nc1-c1c(C)cccc1C)NS(=O)(=O)c1cccc(c1)C(=O)N[C@H](CC(C)(C)C)CO2 [Compound 161, (11R)-6-(2,6-Dimethylphenyl)-11-(2,2-dimethylpropyl)-7-ethyl-9-oxa-2λ^6-thia-3,5,12,19-tetraazatricyclo[12.3.1.14,8]nonadeca-1(18),4(19),5,7,14,16-hexaene-2,2,13-trione] | +++ (+++ is >60%) | < 1000 | ring closure, yield after HPLC ([1]; from CCc1c(OC[C@H](N)CC(C)(C)C)nc(NS(=O)(=O)c2cccc(C(=O)O)c2)nc1-c1c(C)cccc1C, 13-membered ring, COMU/DIEA, DMF, 20.3 mM, 15.0 h): 41% |
| Cc1cccc(C)c1-c1nc2nc(c1C)OCCCNC(=O)c1cccc(c1)S(=O)(=O)N2 [Compound 36, 6-(2,6-Dimethylphenyl)-7-methyl-9-oxa-2λ^6-thia-3,5,13,20-tetraazatricyclo[13.3.1.14,8]icosa-1(19),4,6,8(20),15,17-hexaene-2,2,14-trione] | + (+ is <30%) | 3000 to 30000 | ring closure, yield after HPLC ([1]; from Cc1cccc(C)c1-c1nc(NS(=O)(=O)c2cccc(C(=O)O)c2)nc(OCCCN)c1C, 14-membered ring, HATU/DIEA, DMF, 49.0 mM, 25.0 °C, 1.0 h): 46% |
| (5M,11R)-11-(2,2-dimethylpropyl)-12-({5-[(2,2-dimethylpropyl)(methyl)amino]pyrimidin-2-yl}methyl)-7-methyl-6-[2-methyl-6-(2-methylpropyl)phenyl]-9-oxa-2λ^6-thia-3,5,12,19-tetraazatricyclo[12.3.1.14,8]nonadeca-1(17),4(19),5,7,14(18),15-hexaene-2,2,13-trione | – | – | ring closure, yield after HPLC ([1]; 13-membered ring, CDMT/NMM, DMF, 2 steps): 20% |
| COc1c2nc(nc1-c1c(C)cccc1C)NS(=O)(=O)c1cccc(c1)C(=O)N(C1CC3(CCN(C(=O)OC(C)(C)C)CC3)C1)[C@H](CC(C)C)CO2 | – | – | ring closure, yield after HPLC ([1]; 13-membered ring, HATU/DIEA, DMF): 22% |
| Cc1cccc(COC(C)C)c1-c1nc2nc(c1C)OC[C@@H](CC(C)(C)C)N(Cc1ncc(N3CCC(C)(C)C3)cn1)C(=O)c1cccc(c1)S(=O)(=O)N2 | – | – | ring closure, yield after HPLC ([1]; from Cc1cccc(COC(C)C)c1-c1nc(NS(=O)(=O)c2cccc(C(=O)O)c2)nc(OC[C@@H](CC(C)(C)C)NCc2ncc(N3CCC(C)(C)C3)cn2)c1C, 13-membered ring, CDMT/NMM, DMF, 11.0 mM, 5.0 h, 2 steps): 13% |
| Cc1cccc(C)c1-c1nc2nc(c1F)O[C@H](c1ccc(C(C)(C)C)cc1)[C@@H](C)NC(=O)c1cccc(c1)S(=O)(=O)N2 [Compound 167, (10R,11R)-10-(4-tert-Butylphenyl)-6-(2,6-dimethylphenyl)-7-fluoro-11-methyl-2,2-dioxo-9-oxa-2λ^6-thia-3,5,12,19-tetrazatricyclo[12.3.1.14,8]nonadeca-1(18),4(19),5,7,14,16-hexaen-13-one] | +++ (+++ is >60%) | < 1000 | ring closure, yield after HPLC ([1]; 13-membered ring, NaOtBu then HATU, THF/DMF, 30.0 mM, 2 steps): 30% |
| (5P,11R)-6-(2-cyclopropyl-6-methyl-phenyl)-11-(2,2-dimethylpropyl)-7-methyl-12-[(5-morpholinopyrimidin-2-yl)methyl]-2,2-dioxo-9-oxa-2^6-thia-3,5,12,19-tetrazatricyclo[12.3.1.14,8]nonadeca-1(18),4(19),5,7,14,16-hexaen-13-one | – | – | ring closure, yield after HPLC ([1]; 13-membered ring, CDMT/NMM, DMF, 122.0 mM): 25% |
| Cc1cccc(CC(C)(C)C)c1-c1nc2nc(c1C)OC[C@@H](CC(C)(C)C)N(Cc1ncc(N3CCC(C)(C)C3)cn1)C(=O)c1cccc(c1)S(=O)(=O)N2 | – | – | ring closure, yield after HPLC ([1]; from Cc1cccc(CC(C)(C)C)c1-c1nc(NS(=O)(=O)c2cccc(C(=O)O)c2)nc(OC[C@@H](CC(C)(C)C)NCc2ncc(N3CCC(C)(C)C3)cn2)c1C, 13-membered ring, CDMT/NMM, DMF, 11.0 mM, 16.0 h, 2 steps): 11%; ring closure, yield after HPLC ([1]; from Cc1cccc(CC(C)(C)C)c1-c1nc(NS(=O)(=O)c2cccc(C(=O)O)c2)nc(OC[C@@H](CC(C)(C)C)NCc2ncc(N3CCC(C)(C)C3)cn2)c1C, 13-membered ring, CDMT/NMM, DMF, 12.0 mM, 16.0 h, 2 steps): 7% |
